Paper PMC8067314, “Uptake of Vitamins D2, D3, D4, D5, D6, and D7 Solubilized in Mixed Micelles by Human Intestinal Cells, Caco-2, an Enhancing Effect of Lysophosphatidylcholine on the Cellular Uptake, and Estimation of Vitamins D’ Biological Activities” (Nutrients, 2021)
Like-named read-outs stand apart in the source and are kept apart here. One block for each compound: values may come before it.

Columns and labels:
rats = conditions: cited from earlier work
dispersed Caco-2 cells = assay: Uptake of vitamin D from mixed micelles by dispersed Caco-2 cells; assay type: in vitro ADME, human; conditions: NoPC mixed micelles, 2 h, cells dispersed with trypsin; compared among vitamins D2–D7
Text: Since 2001, we have reported that lysophospholipids enhance the uptake of micellar carotenoids in Caco-2 cells. […] In the present study, using the same method, we examined whether the mechanism for the enhancing effect of lysophosphatidylcholine could be adapted to vitamin D, as well. To evaluate the impact of the degree of cell-cell adhesion/cell-matrix adhesion on vitamin D uptake by cells, we prepared in two different ways: i) dispersed Caco-2 cells without cell-cell adhesion/cell-matrix adhesion and ii) Caco-2 cells with insufficient cell-cell adhesion.
(i): The dispersed cells were prepared by trypsin treatment. After collecting the cells in the culture medium, the number of cells was counted and diluted with the medium. The cells were washed two times with FBS-free DMEM and then seeded in culture plate of 24-well for suspension cultures (SC plate; Greiner Bio-One, Frickenhausen, Germany) at a density of 15 × 10^4 cells per well containing the FBS-free DMEM (0.5 mL).
Subsequent operations are common to the two models of cells. The medium consisting of mixed micellar vitamin D (0.5 mL) was added to adhered cells or dispersed cells in individual wells containing FBS-free DMEM (0.5 mL), resulting in a total medium volume of 1.0 mL/well, and the final start concentrations of mixed micellar components were one-half the initial concentration. The cells were incubated in the same conditions as described above, i.e., in a CO2 incubator at 37 °C for 2 h, and then the cells were washed with 2 mM taurocholate/PBS, followed by two times with PBS. The vitamin D uptake and residual mixed micellar vitamin D were evaluated as the previous subsection, but the filtrate of residual mixed micellar vitamin D was diluted with a 2x-volume of H2O. The cellular protein content was also determined as above.

[1] = system: differentiated Caco-2 cells; assay: Uptake of vitamin D solubilized in mixed micelles by differentiated Caco-2 cells; assay type: in vitro ADME, human; conditions: 2 h; for Vitamin D uptake by differentiated Caco-2 cells: vitamin D 1 μM, compared among vitamins D2–D7
Experimental: Caco-2 cells were purchased from the American Type Culture Collection (Rockville, MD, USA). DMEM containing 10% FBS, 4 mM L-glutamine, penicillin and streptomycin (40 units/mL and 40 μg/mL, respectively), and nonessential amino acids (0.1 mM) were used as the culture medium. The cells were grown in the culture medium at 37 °C in a humidified atmosphere of 5% CO2 in air and then were cultured by passaging two times per week. We used differentiated Caco-2 cells, which have been widely used as a human intestinal model, for vitamin D uptake experiments. To induce differentiation of Caco-2 cells, the cells were seeded in culture plate of 24-well at a density of 5 × 10^4 cells per well containing 0.5 mL of the culture medium. Then, the medium was changed with fresh medium two times per week for 20–22 d. We have previously reported that the cell monolayers obtained by this method had sufficient cell-cell adhesion.
The mixed micelles were prepared as described in our previous reports. All of the components, i.e., taurocholate, monoolein, oleic acid, lysophosphatidylcholine, and vitamin D, were dissolved in an appropriate solvent. Portions of these solvent solutions were moved to glass tubes. The solvent was dried up with argon gas and further centrifugal evaporator. The dry matter was dispersed into FBS-free DMEM (same as the culture medium described above but without FBS). To remove any vitamin D not solubilized in the micelles, the resulting solution was passed through a filter (the pore size was 0.2-μm). The materials of mixed micelle and their concentrations were taurocholate (2 mM), monoolein (100 μM), oleic acid (33 μM), lysophosphatidylcholine (0 or 50 μM), and vitamin D (1 μM), respectively, unless otherwise stated. The concentrations were same as those used in our previous study. […] One part of the mixed micelles was diluted with four parts of methylene chloride/methyl alcohol (1:4, v/v), and then a portion (30 μL) was analyzed by high-pressure liquid chromatography (HPLC) as explained in the “2.8. […]

[2] = biological target: T1, Niemann-Pick C1-like 1 (NPC1L1) (Homo sapiens, UniProt Q9UHC9); assay: Inhibitory effect of ezetimibe on vitamin D uptake by differentiated Caco-2 cells (facilitated diffusion); assay type: in vitro ADME; conditions: 150 μM ezetimibe pretreatment 2 h
T1 construct: host or cells: differentiated Caco-2 cells
T1 sequence (Q9UHC9 22-1359): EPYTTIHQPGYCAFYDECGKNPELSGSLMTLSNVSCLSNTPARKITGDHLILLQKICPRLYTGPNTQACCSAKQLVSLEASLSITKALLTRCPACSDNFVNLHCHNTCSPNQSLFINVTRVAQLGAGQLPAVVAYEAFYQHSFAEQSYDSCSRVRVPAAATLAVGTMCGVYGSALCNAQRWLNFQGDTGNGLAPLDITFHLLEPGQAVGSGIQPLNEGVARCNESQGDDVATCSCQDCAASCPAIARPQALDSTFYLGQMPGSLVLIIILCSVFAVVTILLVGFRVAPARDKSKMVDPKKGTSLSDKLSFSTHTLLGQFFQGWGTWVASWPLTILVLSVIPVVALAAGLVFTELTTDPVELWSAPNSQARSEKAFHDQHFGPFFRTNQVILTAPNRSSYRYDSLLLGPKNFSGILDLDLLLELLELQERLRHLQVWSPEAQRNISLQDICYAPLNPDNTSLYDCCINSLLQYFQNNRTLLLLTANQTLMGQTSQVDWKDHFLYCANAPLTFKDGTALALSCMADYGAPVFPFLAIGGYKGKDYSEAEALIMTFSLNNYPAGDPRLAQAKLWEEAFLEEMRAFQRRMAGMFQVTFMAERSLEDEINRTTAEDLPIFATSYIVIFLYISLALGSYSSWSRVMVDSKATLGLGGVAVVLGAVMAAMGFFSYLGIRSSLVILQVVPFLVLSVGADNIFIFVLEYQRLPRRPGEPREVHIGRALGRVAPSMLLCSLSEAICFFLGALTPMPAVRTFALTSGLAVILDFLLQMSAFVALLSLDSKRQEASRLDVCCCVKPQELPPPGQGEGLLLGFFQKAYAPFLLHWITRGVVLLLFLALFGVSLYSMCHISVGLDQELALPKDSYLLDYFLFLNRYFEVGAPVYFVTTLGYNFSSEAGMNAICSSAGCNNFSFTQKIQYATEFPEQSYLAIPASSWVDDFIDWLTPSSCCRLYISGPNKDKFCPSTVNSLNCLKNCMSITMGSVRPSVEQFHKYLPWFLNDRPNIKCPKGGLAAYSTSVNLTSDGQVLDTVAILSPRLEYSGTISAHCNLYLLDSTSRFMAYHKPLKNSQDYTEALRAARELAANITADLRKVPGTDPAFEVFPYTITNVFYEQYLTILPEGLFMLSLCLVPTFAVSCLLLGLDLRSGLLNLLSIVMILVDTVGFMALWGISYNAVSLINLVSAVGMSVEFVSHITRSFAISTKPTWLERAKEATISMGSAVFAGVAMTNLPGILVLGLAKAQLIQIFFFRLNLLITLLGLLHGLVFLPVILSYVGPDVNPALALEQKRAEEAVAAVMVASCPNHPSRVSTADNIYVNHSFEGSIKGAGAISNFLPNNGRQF
Experimental: In the present study, we evaluated the involvement of facilitated diffusion in the cellular uptake of each mixed micellar vitamin D2–D7 by using ezetimibe, an inhibitor of the protein Niemann-Pick C1-like 1 (NPC1L1). Ezetimibe was dissolved in dimethyl sulfoxide (DMSO), and then was added at a final concentration of 150 μM to the culture medium. At this time, the final concentration of DMSO was 1.5% (v/v). The differentiated Caco-2 cells were preincubated at 37 °C for 2 h with ezetimibe-containing culture medium (0.5 mL). The cells were washed two times with FBS-free DMEM (0.5 mL) and then treated with the medium containing mixed micellar vitamin D (0.5 mL) for 2 h, as described above. After treatment, cellular vitamin D, residual mixed micellar vitamin D, and the cellular protein content were evaluated as described in the previous subsection.

[3] = system: differentiated Caco-2 cells; assay: Cellular cholesterol in differentiated Caco-2 cells treated with mixed micelles containing lysophosphatidylcholine; assay type: cell-based, human; conditions: 2 h, no vitamin D
Experimental: The saponification reaction was performed as follows. A portion (0.8 mL) of the cell homogenate was mixed with 200 μL of 40 μM β-sitosterol/ethyl alcohol as an internal standard, 85 μL of 10 M KOH, and 0.6 mL ethyl alcohol and then incubated at 60 °C for 2 h under argon gas. After cooling the reaction solution, cholesterol was extracted with ethyl acetate and n-hexane in the same manner as the extraction of vitamin D described above. The extract was additionally washed with 0.8 mL H2O before the solvent completely dried and then dissolved in 200 μL of methylene chloride/methyl alcohol/H2O (9:81:10, v/v/v). An aliquot (40 μL) was then subjected to HPLC as described in the “2.8. HPLC Analysis” subsection below. The cellular protein content was also determined as above.
Vitamin D and cholesterol were analyzed by using the HPLC system and columns which were the same as in our previous report. Mobile phase X was ethanenitrile/methyl alcohol/H2O (75:15:10, v/v/v), mobile phase Y was methyl alcohol/ethyl acetate (70:30, v/v), and mobile phase Z was methyl alcohol/isopropyl alcohol (70:30, v/v). These mobile phases contained 0.1% ammonium acetate. […] Vitamin D and cholesterol were quantified from the peak area at 265 nm and 210 nm, respectively, by using the respective calibration curve of the authentic standard.

SMILES: C=C1CC[C@H](O)C/C1=C/C=C1\CCC[C@]2(C)[C@@H]([C@H](C)CCCC(C)C)CC[C@@H]12 [Vitamin D3]
Anti-rickets activity, comparison of vitamins D (rats; line test, vitamins D provided as a crystal): highest activities and were similar

SMILES: C=C1CCC(O)C/C1=C/C=C1\CCCC2(C)C1CCC2C(C)CC[C@H](C)C(C)C (stereo partly drawn) [Vitamin D4]
Vitamin D uptake by dispersed Caco-2 cells (dispersed Caco-2 cells): higher than those of vitamins D2 and D3
Anti-rickets activity as percentage of that of vitamin D2 (rats; line test, crystal): 50–75%

SMILES: C=C1CCC(O)C/C1=C/C=C1\CCCC2(C)C1CCC2C(C)CCC(CC)C(C)C (stereo not drawn) [Vitamin D5]
Vitamin D uptake by differentiated Caco-2 cells ([1]; NoPC mixed micelles (without lysophosphatidylcholine)): lower by vitamin D5 than by other vitamins D
Vitamin D uptake by differentiated Caco-2 cells ([1]; lysoPC mixed micelles (lysophosphatidylcholine 50 μM)): tended to be lower than that of other vitamins D
Vitamin D uptake by dispersed Caco-2 cells (dispersed Caco-2 cells): no tendency toward decreased vitamin-D5 uptake
Anti-rickets activity relative to that of vitamin D2 (rats; UV-irradiated precursors, not crystals): 1/70
Anti-rickets activity relative to that of vitamins D2 and D3 as UV irradiation precursors (rats; UV-irradiated precursors): 1/40
Anti-rickets activity relative to that of vitamin D3 (rats; line test, crystal): 1/180

SMILES: C=C1CCC(O)C/C1=C/C=C1\CCCC2(C)C1CCC2C(C)/C=C/C(CC)C(C)C (stereo not drawn) [Vitamin D6]
Vitamin D uptake by dispersed Caco-2 cells (dispersed Caco-2 cells): higher than those of vitamins D2 and D3
Anti-rickets activity (rats; UV-irradiated precursors): little or no activity

SMILES: CCCCCCCCCCCCCCCC(=O)OC[C@@H](O)COP(=O)([O-])OCC[N+](C)(C)C [lysophosphatidylcholine, 1-16:0-2-OH-sn-glycerol-3-phosphocholine]
Enhancement of vitamin D uptake by lysophosphatidylcholine compared with NoPC ([1]; differentiated Caco-2 cells, lysophosphatidylcholine 50 μM in mixed micelles, average for six vitamin D species): 2.5 times
Effect on cellular cholesterol amounts ([3]; lysophosphatidylcholine at <100 μM in mixed micelles): tended to decrease the cellular cholesterol, but the decrease was not significant
Effect on cellular cholesterol amounts ([3]; lysophosphatidylcholine at >150 μM in mixed micelles): significantly decreased the cellular cholesterol

The next lines start with results.

Vitamin D uptake by dispersed Caco-2 cells (dispersed Caco-2 cells): higher than those of vitamins D2 and D3
SMILES: C=C1CCC(O)C/C1=C/C=C1\CCCC2(C)C1CCC2C(C)CC[C@@H](C)C(C)C (stereo partly drawn) [Vitamin D7]
Anti-rickets activity relative to that of vitamin D2 (rats; UV-irradiated precursors): 1/10

Vitamin-D3 uptake blocked by ezetimibe [2]: 20–30%
inhibition at 150 µM ([2]; relative to vehicle control, NoPC and lysoPC mixed micelles, read-out: Inhibition of the uptakes of vitamins D2–D7 by ezetimibe): ~20%
SMILES: O=C1[C@H](CC[C@H](O)c2ccc(F)cc2)[C@@H](c2ccc(O)cc2)N1c1ccc(F)cc1 [ezetimibe]
